Assay results as given in patent publication US20090181898A1, “ABUSE-RESISTANT A[…]” (SHIRE LLC, priority 2002, published 2009).
Marks after values point to notes of the source that are not given here.

Test: Oral PK study at a high dose (60 mg/kg), 8 h time course
Conditions: rat; for Mean plasma amphetamine concentration: high dose 60 mg/kg

In the case of d-amphetamine, the AUC of d-amphetamine (60 mg/kg) is reported as 13420 ng·h/mL, the “Animals that died or were sacrificed due to acute symptoms of toxicity” value (60 mg/kg) is reported as 8 of 12 and the Cmax of d-amphetamine (60 mg/kg) is reported as 3623 ng/mL. For the same substance, the “Mean Peak of d-amphetamine” value (60 mg/kg) was 2973 ng/mL, the “Mean Peak, Percent d-Amp” value (60 mg/kg) was 100% and the “Mean plasma amphetamine concentration” value (0.5 h) was 2643 ng/mL. For the same substance, the “Mean plasma amphetamine concentration” value (1 h) was 2828 ng/mL, the “Mean plasma amphetamine concentration” value (3 h (d-amphetamine n = 2)) was 2944* ng/ml and the “Mean plasma amphetamine concentration” value (5 h (d-amphetamine n = 2)) was 153* ng/ml. For the same substance, the “Mean plasma amphetamine concentration” value (8 h (d-amphetamine n = 1)) was 1309** ng/ml.
